In paper PMC3037034 (ACS Medicinal Chemistry Letters, 2010):

What was measured:
human COX-2 = biological target: T1, human COX-2 (Homo sapiens, UniProt P35354); experiment: purified COX-2 inhibition, TLC assay; format: biochemical; conditions: for COX-2 inhibitory activity (in words): purified COX-2
T1 sequence (P35354 18-604): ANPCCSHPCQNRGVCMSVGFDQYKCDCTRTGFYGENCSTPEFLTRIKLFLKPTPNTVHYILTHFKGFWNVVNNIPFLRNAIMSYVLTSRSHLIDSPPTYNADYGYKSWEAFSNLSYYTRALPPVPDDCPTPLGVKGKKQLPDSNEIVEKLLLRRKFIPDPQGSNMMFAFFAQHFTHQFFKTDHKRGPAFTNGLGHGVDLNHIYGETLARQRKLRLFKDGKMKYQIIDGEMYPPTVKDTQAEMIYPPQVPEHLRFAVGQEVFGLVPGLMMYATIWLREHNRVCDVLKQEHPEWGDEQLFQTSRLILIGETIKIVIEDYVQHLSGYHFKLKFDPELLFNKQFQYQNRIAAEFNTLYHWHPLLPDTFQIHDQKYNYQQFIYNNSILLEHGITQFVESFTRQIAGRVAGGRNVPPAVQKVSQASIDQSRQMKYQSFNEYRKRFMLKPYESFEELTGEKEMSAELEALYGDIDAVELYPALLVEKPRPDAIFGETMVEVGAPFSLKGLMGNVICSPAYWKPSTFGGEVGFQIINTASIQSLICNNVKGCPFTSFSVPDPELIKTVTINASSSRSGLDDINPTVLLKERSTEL

ovine COX-1 = biological target: T2, ovine COX-1 (Ovis aries, UniProt P05979); experiment: purified COX-1 inhibition, TLC assay; format: biochemical; conditions: at concentrations up to 5 μM
T2 sequence (P05979 25-600): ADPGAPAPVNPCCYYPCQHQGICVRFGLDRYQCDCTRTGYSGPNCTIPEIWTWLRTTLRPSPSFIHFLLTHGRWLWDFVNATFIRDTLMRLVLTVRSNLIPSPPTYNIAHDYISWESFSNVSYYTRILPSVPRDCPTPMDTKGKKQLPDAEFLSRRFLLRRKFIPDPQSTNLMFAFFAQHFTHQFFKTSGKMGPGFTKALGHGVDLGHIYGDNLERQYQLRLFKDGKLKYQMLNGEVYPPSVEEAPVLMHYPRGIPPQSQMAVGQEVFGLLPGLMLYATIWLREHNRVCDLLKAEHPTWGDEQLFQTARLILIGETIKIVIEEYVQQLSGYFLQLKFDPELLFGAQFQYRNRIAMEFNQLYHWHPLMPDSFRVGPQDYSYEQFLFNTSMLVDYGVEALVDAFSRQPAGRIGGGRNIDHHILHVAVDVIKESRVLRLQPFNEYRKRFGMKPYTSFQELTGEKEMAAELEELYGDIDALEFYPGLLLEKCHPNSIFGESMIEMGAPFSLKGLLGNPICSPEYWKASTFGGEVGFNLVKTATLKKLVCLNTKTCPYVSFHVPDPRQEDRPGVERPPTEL

Row | SMILES | IC50 (human COX-2) [nM] | inhibition of COX-1 (in words) (ovine COX-1) | COX-2 inhibitory activity (in words) (human COX-2)
1 | COC(=O)c1cc(-c2cccc(I)c2)n(-c2ccc(S(N)(=O)=O)cc2)n1 [compound 2] | 3800 |  | 
2 | NS(=O)(=O)c1ccc(-n2nc(CCC(=O)O)cc2-c2ccc(I)cc2)cc1 [compound 6] | > 4000 |  | inactive
3 | CCOC(=O)c1cc(-c2ccc(I)cc2)n(-c2ccc(S(N)(=O)=O)cc2)n1 [compound 4] | 260 |  | 
4 | COC(=O)c1cc(-c2ccc(I)cc2)n(-c2ccc(S(N)(=O)=O)cc2)n1 [compound 3] | 560 |  | 
5 | NS(=O)(=O)c1ccc(-n2nc(CCC(=O)O)cc2-c2cccc(I)c2)cc1 [compound 5] | > 4000 |  | inactive

Now from value to molecule:

Row | IC50 (human COX-2) [nM] | inhibition of COX-1 (in words) (ovine COX-1) | COX-2 inhibitory activity (in words) (human COX-2) | SMILES
6 | 3000 |  |  | COC(=O)c1cc(-c2ccc(I)cc2)n(-c2ccc(S(C)(=O)=O)cc2)n1 [compound 10]
7 | 320 |  |  | CS(=O)(=O)c1ccc(-n2nc(C(F)(F)F)cc2-c2cccc(I)c2)cc1 [compound 7]
8 | > 4000 |  |  | COC(=O)c1cc(-c2cccc(I)c2)n(-c2ccc(S(C)(=O)=O)cc2)n1 [compound 9]
9 | 50 | without inhibition |  | CS(=O)(=O)c1ccc(-n2nc(C(F)(F)F)cc2-c2ccc(I)cc2)cc1 [compound 8, 5-(4-iodophenyl)-1-{4-(methylsulfonyl)phenyl}-3-(trifluoromethyl)-1H-pyrazole]
